# pIC50: −log10 of the molar value.
# Test system: CWR22RV1 cells
# Experiment: Inhibition of proliferation of CWR22RV1 cells (CCK-8)
# Format: cell-based, human
# Conditions: Homo sapiens, CWR22Rv1, 144 h, 6 days
# Summary of the method: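 Cells seeded at 1500/well, cultured overnight, then exposed to compounds in 3-fold dilutions (9 concentrations from 10 μM top final, 0.1% DMSO) for 6 days at 37 °C. Viability read by CCK-8 absorbance at 450 nm after 2.5 h; IC50 from dose-response inhibition fit.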
row,SMILES,pIC50
1,"[2H]C([2H])([2H])n1cc(-c2cc(S(N)(=O)=O)ccc2N2CCC3(CC3)C2)c2cc[nH]c2c1=O [Compound 200, 3-(6-trideuteromethyl-7-oxo-6,7-dihydro-1H-pyrrolo[2,3-c]pyridin-4-yl)-4-(5-aza-spiro[2.4]heptan-5-yl)benzensulfonamide]",8.17
2,"[2H]C([2H])([2H])n1cc(-c2cc(S(N)(=O)=O)ccc2N2CCC3(CC2)CC3)c2cc[nH]c2c1=O [Compound 201, 3-(6-trideuteromethyl-7-oxo-6,7-dihydro-1H-pyrrolo[2,3-c]pyridin-4-yl)-4-(6-azaspiro[2.5]octan-6-yl)benzenesulfonamide]",8.85
3,"[2H]C([2H])([2H])n1cc(-c2cc(S(=O)(=O)N(C)C)ccc2N2CCC3(CC2)CC3)c2cc[nH]c2c1=O [Compound 203, N,N-dimethyl-3-(6-trideuteromethyl-7-oxo-6,7-dihydro-1H-pyrrolo[2,3-c]pyridin-4-yl)-4-(6-aza-spiro[2.5]octan-6-yl)benzenesulfonamide]",9.70
4,"[2H]C([2H])([2H])n1cc(-c2cc(S(=O)(=O)NCCO)ccc2N2CCC3(CC2)CC3)c2cc[nH]c2c1=O [Compound 205, N-(2-hydroxyethyl)-3-(6-trideuteromethyl-7-oxo-6,7-dihydro-1H-pyrrolo[2,3-c]pyridin-4-yl)-4-(6-aza-spiro[2.5]octan-6-yl)benzenesulfonamide]",8.32
5,"Cn1cc(-c2cc(C(=O)O)ccc2N2CCC3(CC2)CC3)c2cc[nH]c2c1=O [Compound 220, 3-(6-methyl-7-oxo-6,7-dihydro-1H-pyrrolo[2,3-c]pyridin-4-yl)-4-(6-aza-spiro[2.5]octan-6-yl)benzoic acid]",6.28
6,"Cn1cc(-c2cc(C(N)=O)ccc2N2CCC3(CC2)CC3)c2cc[nH]c2c1=O [Compound 221, 3-(6-methyl-7-oxo-6,7-dihydro-1H-pyrrolo[2,3-c]pyridin-4-yl)-4-(6-aza-spiro[2.5]octan-6-yl)benzeneformamide]",6.89
7,"COC(=O)c1ccc(N2CCC3(CC2)CC3)c(-c2cn(C)c(=O)c3[nH]ccc23)c1 [Compound 222, methyl 3-(6-methyl-7-oxo-6,7-dihydro-1H-pyrrolo[2,3-c]pyridin-4-yl)-4-(6-aza-spiro[2.5]octan-6-yl)benzoate]",6.46
8,"CC(=O)c1ccc(N2CCC3(CC2)CC3)c(-c2cn(C)c(=O)c3[nH]ccc23)c1 [Compound 223, 4-(5-acetyl-2-(6-aza-spiro[2.5]octan-6-yl)phenyl)-6-methyl-1H-pyrrolo[2,3-c]pyridin-7(6H)-one]",6.96
9,"Cn1cc(-c2cc(C(=O)N3CCS(=O)(=O)CC3)ccc2N2CCC3(CC2)CC3)c2cc[nH]c2c1=O [Compound 224, 4-(5-(1,1-dioxothiomorpholine-4-carbonyl)-2-(6-aza-spiro[2.5]octan-6-yl)phenyl)-6-methyl-1H-pyrrolo[2,3-c]pyridin-7(6H)-one]",7.21
10,"Cn1cc(-c2cc(C(C)(C)O)ccc2N2CCC3(CC2)CC3)c2cc[nH]c2c1=O [Compound 225, 4-(5-(2-hydroxypropan-2-yl)-2-(6-aza-spiro[2.5]octan-6-yl)phenyl)-6-methyl-1H-pyrrolo[2,3-c]pyridin-7(6H)-one]",6.89
11,CC(=O)Nc1ccc(N2CCC3(CC2)COC3)c(-c2cn(C)c(=O)c3[nH]ccc23)c1 [Compound 230],6.60
12,"[2H]C([2H])([2H])n1cc(-c2cc(S(=O)(=O)CC)ccc2N2CCC3(CC2)CC3)c2cc[nH]c2c1=O [Compound 232, 4-(5-(ethylsulfonyl)-2-(6-aza-spiro[2.5]octan-6-yl)phenyl)-6-trideuteromethyl-1H-pyrrolo[2,3-c]pyridin-7(6H)-one]",9.22
13,"[2H]C([2H])([2H])n1cc(-c2cc(S(=O)(=O)C(C)C)ccc2N2CCC3(CC2)CC3(F)F)c2cc[nH]c2c1=O [Compound 233, 4-(2-(1,1-difluoro-6-aza-spiro[2.5]octan-6-yl)-5-(isopropylsulfonyl)phenyl)-6-trideuteromethyl-1H-pyrrolo[2,3-c]pyridin-7(6H)-one]",8.89

# Reference: patent publication US12162878B2 (HINOVA PHARMACEUTICALS INC., priority 2018, dated 2024)
